Source: the NIST ThermoML archive (doi:10.1021/acs.jced.7b00827)
± gives the expanded uncertainty stated by the source.

Experiments:
[1] = Liquid, Ebulliometric method (Recirculating still)
[2] = refractive index (Na D-line) (dimensionless); conditions: 101.33 kPa, Standard Abbe refractometry

**Q.** With `Cc1cccc(C)c1O` [2,6-dimethylphenol] as the molecule, how does the “vapor or sublimation pressure” value ([1]; 418.21 K) read?
**A.** The value was 20 ± 0.2 kPa.

**Q.** What about the Normal boiling temperature [1] of the same molecule?
**A.** The Normal boiling temperature was 201.20 ± 1 °C.

**Q.** What about the refractive index ([2]; 293.15 K, Metastable liquid) of the same molecule?
**A.** Its refractive index is 1.5075 ± 0.0008.

**Q.** What about the refractive index ([2]; 298.15 K, Metastable liquid) of the same molecule?
**A.** The refractive index was 1.5053 ± 0.0008.

**Q.** For `Cc1cccc(O)c1` [3-methylphenol], which “vapor or sublimation pressure” value ([1]; 422.28 K) is on record?
**A.** The value was 20 ± 0.2 kPa.

**Q.** And the Normal boiling temperature [1]?
**A.** Its Normal boiling temperature is 202.20 ± 1 °C.

**Q.** What about the refractive index ([2]; 293.15 K, Liquid) of the same molecule?
**A.** The refractive index was 1.5396 ± 0.0008.

**Q.** What about the refractive index ([2]; 298.15 K, Liquid) of the same molecule?
**A.** Its refractive index is 1.5374 ± 0.0008.

**Q.** Which “vapor or sublimation pressure” value ([1]; 468.25 K) does the source give for `CC(O)CNCC(C)O` (stereo not drawn) [N-(2-hydroxypropyl)-2-hydroxy-1-propanamine] here?
**A.** Its value is 20 ± 0.2 kPa.

**Q.** And the Normal boiling temperature [1]?
**A.** Its Normal boiling temperature is 249.1 ± 1 °C.

**Q.** And the refractive index ([2]; 294.15 K, Liquid)?
**A.** The refractive index was 1.4625 ± 0.0008.

**Q.** Which “vapor or sublimation pressure” value ([1]; 351.38 K) does the source give for `CCO` [ethanol] here?
**A.** The value was 101.3 ± 0.5 kPa.

**Q.** Which “vapor or sublimation pressure” value ([1]; 373.05 K) does the source give for `O` [water] here?
**A.** The value was 101.3 ± 0.5 kPa.
